{"source": "patent US12458622B2", "about": "“Methods of treatment of coronavirus-induced inflammation conditions” (priority 2020, dated 2025)", "key": {"[1]": {"test_system": "HMC3 human microglia cells", "experiment": "Cell viability assay by AO/PI stain", "type": "cell-based", "details": "for microglia death: 300 ng/mL, 24 hr", "description": "(§1) Human microglial cell line HMC3 (CRL-3304) was purchased from ATCC (American Type Culture Collection). HMC3 cell line was cultured in DMEM medium with 10% FBS, 1% L-glutamine, and 1% penicillin/streptomycin. Cells were maintained in 37° C. incubator at 5% CO2.\n(§2) HMC3 cells were resuspended, counted using the LUNA-II Automated Cell Counter, seeded in the 6-well plate (300 K cells/2 mL medium/well), and incubated overnight to allow cells to attach. Cells were treated with TNF-α or IFN-γ at five different concentrations (0, 10, 30, 100, 300 ng/mL) for 24 hr to induce cell activation. The supernatant medium was completely aspirated and 1 mL of fresh DMEM was added to wash the cell layer to remove detached cells and debris. The attached cells were resuspended and washed with PBS. Cells were washed with FACS buffer (2% FBS in PBS) prior to incubation with Zombie Violet Fixable Viability Dye (#423114, Biolegend, 1:500 dilution) and Human Fe Receptor Blocking Solution (#422302, Biolegend, 1:20) diluted in FACS buffer at RT for 10 min in the dark. Cells were then washed with FACS buffer and incubated at RT for 20 min with the following cell-surface antibodies: FITC anti-MHC II (#361706, Biolegend), PerCP/Cy5.5 anti-CD11b (#301328, Biolegend), BV605 anti-CD40 (#334336, Biolegend), PE anti-CD86 (#374206, Biolegend), PE/Cy7 anti-CD163 (#326514, Biolegend), APC anti-CD206 (#321110, Biolegend), and PerCP/Cy5.5 anti-CD14 (#367110, Biolegend). All of the cell-surface antibodies were diluted 1:20 in FACS buffer. Cells were permeabilized using the Transcription Factor Fixation/Permeabilization Buffer Set (#424401, Biolegend). Then cells were incubated with the following intracellular antibodies: APC/Cy7 anti-CD68 (#333822, Biolegend), purified anti-IBA1 (#PA5-27436, Invitrogen), Goat anti-Rabbit-Alexa Fluor 647 (#A21245, Invitrogen), purified anti-GFAP (#644702, Biolegend), and Goat anti-Mouse-Alexa Fluor 488 (#11029, Invitrogen). All of the intracellular antibodies were diluted 1:100 in the Permeabilization buffer (lx). Cells were washed with Permeabilization buffer and fixed in Fixation Buffer (#420801, Biolegend). Flow cytometry was performed using the Attune NxT Acoustic Focusing Cytometer (Thermo Fisher Scientific). Analysis of flow cytometry data was performed via FCS Express 7 (DeNovo Software).\nCell viability was assessed with a LUNA-FL Automated fluorescence cell counter. Viable nucleated cells show green fluorescence and dying nucleated cells show red fluorescence. 18 µL of sample was mixed with 2 μL Acridine Orange/Propidium Iodide (AO/PI) Stain.\n(§3) All the data were presented as mean±standard error from at least three times, each done in triplicate. The statistical significance between two groups was determined by Student's t test, whereas the comparisons of multiple groups were carried out by one-way ANOVA, followed by Bonferroni's post-test using GraphPad Prism 7 (GraphPad Software, Inc.). A probability value of * p<0.05 was considered to be significant."}, "[2]": {"test_system": "HMC3 human microglia cells", "experiment": "MSD U-PLEX cytokine secretion induced by TNF-α", "type": "cell-based", "parameters": "increase in IL-1β secretion compared to untreated HMC3 cells / increase in IL-6 secretion compared to untreated HMC3 cells / increase in IL-8 secretion compared to untreated HMC3 cells / IFN-γ secretion: dose or concentration left out as unconfirmed", "details": "for inhibition at 3 µM: Homo sapiens, HMC3", "description": "as §1\n(§4) HMC3 cells were resuspended, counted using the LUNA-II Automated Cell Counter, seeded in the 6-well plate (400 K cells/2 mL medium/well), and incubated overnight to allow cells to attach. The media and detached cells were removed next day. The cell layer was washed three times in PBS and once in serum- and phenolred-free DMEM (SPFM). […] The conditioned medium was collected and centrifuged at 1,000×RCF (g) for 5 min to pellet detached cells and large debris, which was subsequently passed through a 0.22 μm filter with PVDF membrane to remove smaller debris. Samples of the supernatant medium were put in a CoolRack (#07210041, Fisher Scientific) on dry ice for Snap-freezing and kept at −80° C. until use.\n(§5) Meso-scale U-PLEX plates that detect a cytokine panel including IL-1β, IL-2, IL-4, IL-6, IL-8, IL-10, IFN-γ, TNF-α, and a chemokine panel including IP-10/CXCL10, MCP-1/CCL2, MIP-1α/CCL3, MIP-1P/CCL4, Eotaxin/CCL11, were used as per manufacture's protocol. 25 μL of the conditioned medium was used in each well of the MSD plates to detect the analytes. The plates were then analyzed on an MSD QuickPlex SQ120 instrument.\nas §3"}, "[3]": {"test_system": "HMC3 human microglia cells", "experiment": "MSD U-PLEX chemokine secretion induced by TNF-α", "type": "cell-based", "details": "0.3 μg/mL TNF-α, 24 hours; for inhibition at 3 µM: Homo sapiens, HMC3", "description": "as §1, §4, §5, §3"}, "[4]": {"test_system": "H5N1 virus", "details": "after H5N1 virus infection; cited from earlier work"}, "[5]": {"test_system": "HMC3 human microglia cells", "experiment": "Flow cytometry of microglia activation biomarkers", "type": "cell-based", "details": "300 ng/mL, 24 hr", "description": "as §1\nas §2, with “Cells were washed with Permeabilization buffer and fixed in Fixation Buffer (#420801, Biolegend). Flow cytometry was performed using the Attune NxT Acoustic Focusing Cytometer (Thermo Fisher Scientific). Analysis of flow cytometry data was performed via FCS Express 7 (DeNovo Software).” left out"}}}
{"compound": "O=C(O)c1cc(=O)c2c(OCC(F)COc3cccc4oc(C(=O)O)cc(=O)c34)cccc2o1", "note": "[F-cromolyn]", "values": [{"measurement": "TNF-α induced cell death", "setting": "[1]; 0.3 μM, TNF-α 0.3 μg/mL", "result": "significantly reduced cell death"}, {"measurement": "IFN-γ concentration", "setting": "[2]; 0.3 μM, TNF-α induced, 24 hr", "result": "decreased"}, {"measurement": "IL-1β concentration", "setting": "[2]; 0.3 μM, TNF-α induced, 24 hr", "result": "decreased"}, {"measurement": "IL-6 concentration", "setting": "[2]; 0.3 μM, TNF-α induced, 24 hr", "result": "decreased"}, {"measurement": "IL-8 concentration", "setting": "[2]; 0.3 μM, TNF-α induced, 24 hr", "result": "decreased"}, {"measurement": "inhibition at 3 µM", "setting": "[2]; TNF-α induced, 24 hr, read-out: inhibition of IFN-γ", "result": "> 50", "unit": "%"}, {"measurement": "inhibition at 3 µM", "setting": "[2]; TNF-α induced, 24 hr, read-out: inhibition of IL-1β", "result": "> 50", "unit": "%"}, {"measurement": "inhibition at 3 µM", "setting": "[2]; TNF-α induced, 24 hr, read-out: inhibition of IL-6", "result": 39.8, "unit": "%"}, {"measurement": "inhibition at 3 µM", "setting": "[2]; TNF-α induced, 24 hr, read-out: inhibition of IL-8", "result": 27.9, "unit": "%"}, {"measurement": "extracellular IP-10 (CXCL10)", "setting": "[3]; 0.3 μM", "result": "can inhibit"}, {"measurement": "extracellular MCP-1 (CCL2)", "setting": "[3]; 0.3 μM", "result": "can inhibit"}, {"measurement": "extracellular MIP-1α (CCL3)", "setting": "[3]; 0.3 μM", "result": "can inhibit"}, {"measurement": "extracellular MIP-1β (CCL4)", "setting": "[3]; 0.3 μM", "result": "can inhibit"}, {"measurement": "inhibition at 3 µM", "setting": "[3]; read-out: inhibition of IP-10 (CXCL10)", "result": "> 40", "unit": "%"}, {"measurement": "inhibition at 3 µM", "setting": "[3]; read-out: inhibition of MCP-1 (CCL2)", "result": "> 40", "unit": "%"}, {"measurement": "inhibition at 3 µM", "setting": "[3]; read-out: inhibition of MIP-1α (CCL3)", "result": 36, "unit": "%"}, {"measurement": "inhibition at 3 µM", "setting": "[3]; read-out: inhibition of MIP-1β (CCL4)", "result": "> 40", "unit": "%"}]}
{"compound": "CN1CCC(=C2c3ccccc3CC(=O)c3sccc32)CC1", "note": "[ketotifen]", "values": [{"measurement": "lung injury", "setting": "[4]", "result": "improved"}]}
{"compound": "IFN-γ: recombinant human IFN-γ, used to activate HMC3 microglia", "values": [{"measurement": "microglia death", "setting": "[1]", "result": 19.7, "unit": "%"}, {"measurement": "expression of anti-inflammatory microglia biomarkers (CD163 and CD206)", "setting": "[5]", "result": "no alteration"}, {"measurement": "expression of inflammatory microglia biomarkers", "setting": "[5]", "result": "increased protein expression"}]}
{"compound": "TNF-α", "values": [{"measurement": "microglia death", "setting": "[1]", "result": 15.6, "unit": "%"}, {"measurement": "cell death, share of the total population", "setting": "[1]; TNF-α 0.3 μg/mL", "result": "approximately 20%"}, {"measurement": "expression of inflammatory microglia biomarkers", "setting": "[5]", "result": "increases the expression"}, {"measurement": "IFN-γ secretion", "setting": "[2]; 24 hours", "result": "caused the previously quiescent cells to secrete IFN-γ"}, {"measurement": "increase in IL-1β secretion compared to untreated HMC3 cells", "setting": "[2]; 24 hours", "result": "> 177", "unit": "fold"}, {"measurement": "increase in IL-6 secretion compared to untreated HMC3 cells", "setting": "[2]; 24 hours", "result": "> 177", "unit": "fold"}, {"measurement": "increase in IL-8 secretion compared to untreated HMC3 cells", "setting": "[2]; 24 hours", "result": "> 177", "unit": "fold"}]}
